Literature values, collected in patent US20070248669A1, “Oral sustained release formulation” (priority 2006, published 2007).
Structures can show the parent of a compound that is named as a salt.

How the values were obtained:
[1] = daily multiple dosing regimen, patients under treatment
[2] = compressed tablets, therapeutic dosing

patients experiencing nausea [1]: about forty five | patients with vomiting [1]: about seventeen | time after administration until normal plasma levels are approached [2]: about twelve
Compound: COc1ccc(C(CN(C)C)C2(O)CCCCC2)cc1 (stereo not drawn) [venlafaxine hydrochloride, 1-[2-(dimethylamino)-1-(4-methoxyphenyl)-ethyl]cyclohexanol]
